Our source for the TGI and GI50 values is PubChem BioAssay (NCI).

Several values for one entry are separate records, joined by “and”; a condition that tells them apart may be missing. Identical values can stand only once.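 The compound was tested at five concentrations on cells cultured in 96-well plates, with a 48-hour exposure period. At the GI50, growth is halved. Definition used: TGI = concentration required for complete inhibition of growth.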

Among the test systems are K-562 leukemia; SF-539 CNS; KM12 colon; SF-268 CNS; SF-295 CNS; OVCAR-3 ovarian; MALME-3M melanoma; A549 NSCLC; SK-MEL-28 melanoma; NCI/ADR-RES ovarian.
Assay in all cases: inhibition of tumour cell growth, NCI panel, 48 h

In the case of `Cc1ccc(C(C)(C)C[P+](C)(c2ccccc2)c2ccccc2)cc1`, the TGI in the assay with K-562 leukemia was 46 µM; in the assay with SF-539 CNS, over 100 µM; in the assay on KM12 colon it was over 45.7 µM; in the assay on SF-268 CNS, over 100 µM; in the assay with SF-295 CNS, over 85.2 µM; in the assay on OVCAR-3 ovarian, 22.2 µM. For the same compound, the TGI with MALME-3M melanoma is over 48.8 µM; in the assay on A549 NSCLC, over 100 µM; in the assay with SK-MEL-28 melanoma, 66.4 µM; with NCI/ADR-RES ovarian, over 100 µM.
On to `NC(=S)N/N=C\c1ccc(OCc2cccc(COc3ccc(/C=N/NC(N)=S)cc3)n2)cc1`, for which the TGI with K-562 leukemia, with SF-539 CNS, with KM12 colon, in the assay on SF-268 CNS, in the assay on SF-295 CNS and in the assay with OVCAR-3 ovarian was over 100 µM each time. For the same compound, the TGI in the assay on MALME-3M melanoma, in the assay on A549 NSCLC, with SK-MEL-28 melanoma and with NCI/ADR-RES ovarian was over 100 µM in each case.
Turning to `CCNc1ccc2c(c1)Cc1ccccc1-2`, the TGI in the assay with K-562 leukemia, in the assay on SF-539 CNS, in the assay on KM12 colon, with SF-268 CNS, in the assay on SF-295 CNS and in the assay on OVCAR-3 ovarian was over 100 µM in each case. Besides, the TGI in the assay with MALME-3M melanoma, with A549 NSCLC, with SK-MEL-28 melanoma and with NCI/ADR-RES ovarian was over 100 µM in each case.
`CC(=O)OCC1OC(n2c3c(c(-c4cccc5ccccc45)c(C#N)c2=S)CCCC3)C(OC(C)=O)C(OC(C)=O)C1OC(C)=O` (stereo not given): the TGI in the assay on K-562 leukemia, with SF-539 CNS, with KM12 colon, with SF-268 CNS, in the assay on SF-295 CNS and with OVCAR-3 ovarian was over 100 µM each time. Besides, the TGI in the assay with MALME-3M melanoma, in the assay with A549 NSCLC, in the assay on SK-MEL-28 melanoma and with NCI/ADR-RES ovarian was over 100 µM each time.
As for `CC(C)=CCC[C@@H](C)C1=C(Nc2ccccc2Cl)C(O)=C(C)C(=O)C1=O`, the TGI was over 64.1 µM with K-562 leukemia; 19.8 µM in the assay on SF-539 CNS; 17.7 µM in the assay on KM12 colon; 20.2 µM with SF-268 CNS; 14 µM in the assay with SF-295 CNS; 16.5 µM in the assay on OVCAR-3 ovarian. For the same compound, the TGI in the assay with MALME-3M melanoma was found to be 18.7 µM; in the assay with A549 NSCLC it was 15.7 µM; with SK-MEL-28 melanoma, 33.5 µM; in the assay on NCI/ADR-RES ovarian, 27.1 µM.
On to `Nc1nc(-c2ccccc2N=NN2CCCC2)nc2ccccc12`, for which the TGI in the assay with K-562 leukemia was found to be 10.2 µM; in the assay on SF-539 CNS, 5 µM; in the assay with KM12 colon, 7.36 µM; in the assay on SF-268 CNS, 21.5 µM; in the assay with SF-295 CNS, 10.5 µM; in the assay with OVCAR-3 ovarian, 4.35 µM. The TGI came to 13.5 µM in the assay with MALME-3M melanoma, 10.5 µM in the assay with A549 NSCLC, 25.2 µM in the assay with SK-MEL-28 melanoma and 12.2 µM in the assay with NCI/ADR-RES ovarian.
Regarding `COc1cccc(CC(C)NCC(O)c2ccc(O)c(O)c2)c1` (stereo not given), the TGI in the assay with K-562 leukemia, in the assay with SF-539 CNS, with KM12 colon, with SF-268 CNS, in the assay on SF-295 CNS and with OVCAR-3 ovarian was over 100 µM in each case. In addition, the TGI in the assay with MALME-3M melanoma, with A549 NSCLC, in the assay on SK-MEL-28 melanoma and in the assay on NCI/ADR-RES ovarian was over 100 µM in each case.
Regarding `O=[N+]([O-])c1c(Br)cc(Br)c2c1Nc1c(ccc(Cl)c1Cl)S2`, the TGI in the assay on K-562 leukemia came out at 17.3 µM; with SF-539 CNS, 41.2 µM; in the assay with KM12 colon, 20.5 µM; with SF-268 CNS it was 38.6 µM; in the assay with SF-295 CNS, 39.1 µM; in the assay with OVCAR-3 ovarian, 9.5 µM. Moreover, the TGI was determined as 27.7 µM in the assay on MALME-3M melanoma, 39.5 µM in the assay with A549 NSCLC, 31.4 µM in the assay on SK-MEL-28 melanoma and 75.1 µM in the assay with NCI/ADR-RES ovarian.
With `COC1OC(Cc2nnc(C)o2)C(OCc2ccccc2)C(OCc2ccccc2)C1OCc1ccccc1` (stereo not given), the TGI in the assay with K-562 leukemia is 98.5 µM; in the assay with SF-539 CNS it was over 100 µM; in the assay on KM12 colon it was 42.3 µM; in the assay with SF-268 CNS, 46.3 µM; in the assay on SF-295 CNS, 52.6 µM; in the assay with OVCAR-3 ovarian, 60.6 µM. Besides, the TGI is 38.9 µM with MALME-3M melanoma, over 100 µM with A549 NSCLC, 45.3 µM with SK-MEL-28 melanoma and 70 µM with NCI/ADR-RES ovarian.
For the compound `O=C(CCN1CCCC1)Nc1ccc2sc3ccccc3c(=O)c2n1`, the TGI is 21.3 µM in the assay on K-562 leukemia; 18.1 µM in the assay with SF-539 CNS; 18.3 µM in the assay on KM12 colon; over 31.6 µM in the assay on SF-268 CNS; 27.8 µM with SF-295 CNS; 20.5 µM in the assay on OVCAR-3 ovarian. For the same compound, the TGI is 17.6 µM in the assay with MALME-3M melanoma, 17.9 µM in the assay on A549 NSCLC, 19.9 µM in the assay on SK-MEL-28 melanoma and 21.4 µM in the assay with NCI/ADR-RES ovarian.
With `CCOC(=O)C(NC(=O)N(C1=NCC(C)S1)C1CCCCC1)(OC)C(F)(F)F` (stereo not given), the TGI is over 100 µM in the assay with K-562 leukemia; 93.1 µM in the assay on SF-539 CNS; over 100 µM with KM12 colon; over 100 µM with SF-268 CNS; over 100 µM in the assay on SF-295 CNS; 71.1 µM in the assay on OVCAR-3 ovarian. Also, the TGI in the assay on MALME-3M melanoma, with A549 NSCLC, in the assay with SK-MEL-28 melanoma and in the assay on NCI/ADR-RES ovarian was over 100 µM throughout.
As to `C/C(=N\NC(=S)N1CCCCC1)c1cccc(C)n1`, the TGI is over 73.8 µM with K-562 leukemia; 0.413 µM in the assay with SF-539 CNS; 17.5 µM in the assay with KM12 colon; 4.23 µM with SF-268 CNS; over 33.4 µM in the assay with SF-295 CNS; 12.1 µM in the assay on OVCAR-3 ovarian. The TGI amounted to 2.13 µM in the assay with MALME-3M melanoma, 10.6 µM with A549 NSCLC, 36.9 µM in the assay with SK-MEL-28 melanoma and 0.258 µM in the assay on NCI/ADR-RES ovarian.
Consider `CC[N+]1(C)CCC(O)(/C=C/c2ccc(OC)cc2)C(C(=O)/C=C/c2ccc(OC)cc2)C1` (stereo not given), for which the TGI with K-562 leukemia is 4.5 µM; with SF-539 CNS it was over 45.7 µM; in the assay on KM12 colon it was 16.8 µM; in the assay on SF-268 CNS, over 59.7 µM; in the assay on SF-295 CNS, 39.1 µM; with OVCAR-3 ovarian, 53 µM. Besides, the TGI with MALME-3M melanoma is 34.6 µM; in the assay on A549 NSCLC, over 58 µM; in the assay on SK-MEL-28 melanoma, 31.7 µM; in the assay on NCI/ADR-RES ovarian it was over 60.8 µM.
As to `CN(C)CCNC(=O)c1ccc(NCCCN(C)CCCNc2ccc3c(=O)n(CCN(C)C)c(=O)n4c5ccccc5c(=O)c2c34)c2c(=O)c3ccccc3[nH]c12`, the TGI in the assay with K-562 leukemia is 1.06 µM; with SF-539 CNS, 2.46 µM; with KM12 colon it was 0.319 µM; in the assay with SF-268 CNS it was 0.326 µM; in the assay with SF-295 CNS, 1.06 µM; with OVCAR-3 ovarian it was 0.23 µM. The TGI came to 0.453 µM in the assay on MALME-3M melanoma, 0.164 µM with A549 NSCLC, 1.34 µM with SK-MEL-28 melanoma and 3.32 µM with NCI/ADR-RES ovarian.
Turning to `[Cl][Pt+2][Cl].[NH-]C1CCCCC1[NH-]` (stereo not given), the TGI in the assay with K-562 leukemia is > 100 µM and 17.8 µM; in the assay on SF-539 CNS, over 100 µM; in the assay with KM12 colon, over 100 µM; in the assay with SF-268 CNS, 56.7 µM and > 100 µM and > 58.3 µM; in the assay with SF-295 CNS, over 100 µM; in the assay on OVCAR-3 ovarian, > 59.4 µM and > 47.2 µM and 20.8 µM. Further, the TGI with MALME-3M melanoma was 32.4 µM and 24 µM and 7.45 µM; in the assay on A549 NSCLC it was over 100 µM; in the assay with SK-MEL-28 melanoma, 65.8 µM and 56.4 µM and 20.6 µM; in the assay with NCI/ADR-RES ovarian, > 60.6 µM and > 100 µM and 13.1 µM. The GI50 with SF-539 CNS is 21.6 µM and 6.79 µM and 6.99 µM; with KM12 colon, 80.6 µM and > 72.1 µM and 10.6 µM; with SF-295 CNS it was 6.32 µM and 5.35 µM and 1.06 µM; in the assay with OVCAR-3 ovarian it was 9.42 µM and 6.62 µM and 2.98 µM; with MALME-3M melanoma it was 10.2 µM and 3.39 µM and 1.14 µM.
For the compound `Cn1nc2n(c1=O)CCCN2`, the TGI with K-562 leukemia, with SF-539 CNS, with KM12 colon, with SF-268 CNS, in the assay with SF-295 CNS and in the assay with OVCAR-3 ovarian was over 100 µM in each case. Moreover, the TGI with MALME-3M melanoma, in the assay on A549 NSCLC, in the assay with SK-MEL-28 melanoma and in the assay on NCI/ADR-RES ovarian was over 100 µM each time.
For `CCCCc1cc2c(C)cc(=O)oc2c(O)c1O`, the TGI in the assay on K-562 leukemia was 73.5 µM; with SF-539 CNS, 47.4 µM; in the assay on KM12 colon it was 64.3 µM; in the assay with SF-268 CNS it was over 100 µM; in the assay on SF-295 CNS, 67.3 µM; in the assay with OVCAR-3 ovarian, 82 µM. In addition, the TGI with MALME-3M melanoma is 88.9 µM; in the assay with A549 NSCLC it was over 100 µM; with SK-MEL-28 melanoma it was over 100 µM; with NCI/ADR-RES ovarian, 56.4 µM.
Take `Cc1cc(=O)n2nc(SCc3ccccc3)sc2n1`: the TGI with K-562 leukemia, in the assay on SF-539 CNS, with KM12 colon, in the assay on SF-268 CNS, in the assay on SF-295 CNS and in the assay on OVCAR-3 ovarian was over 100 µM each time. The TGI in the assay with MALME-3M melanoma, in the assay with A549 NSCLC, with SK-MEL-28 melanoma and in the assay with NCI/ADR-RES ovarian was over 100 µM each time.
In the case of `CC(=O)O[C@@H]1C[C@@]23C[C@@]24CC[C@H](OC2OCC(O)C(O)C2O)C(C)(C)[C@@H]4CC=C3[C@]2(C)C[C@@H]3OC4(C[C@@H](C)[C@@H]3[C@@]12C)OC(O)[C@@]1(C)O[C@@H]41` (stereo not given in full), the TGI in the assay on K-562 leukemia was over 100 µM; with SF-539 CNS, 41.4 µM; with KM12 colon, over 100 µM; in the assay on SF-268 CNS, over 100 µM; in the assay with SF-295 CNS, 80.6 µM; with OVCAR-3 ovarian it was 34.5 µM. Moreover, the TGI in the assay with MALME-3M melanoma, with A549 NSCLC, with SK-MEL-28 melanoma and in the assay on NCI/ADR-RES ovarian was over 100 µM throughout.
